Results as given in patent US9643967B2, “Pyrrolo[3,2-c]pyridine derivatives as TLR inhibitors” (TAKEDA PHARMACEUTICAL COMPANY LIMITED, priority 2013, dated 2017).

biological target: T1, hTLR9 (Homo sapiens, UniProt Q9NR96); experiment: hTLR9 antagonism (SEAP inhibition assay) in HEK-Blue-hTLR9 (HEK293) cells, ODN-2006 stimulated; assay type: cell-based; settings: HEK-Blue hTLR9, 1 μM; SEAP, HEK-Blue-hTLR9 cells; read-out: hTLR9 inhibitory activity (% at 1 μM)
T1 construct: expressed in transfected cells; host or cells: HEK-Blue-hTLR9 cells (HEK293)
T1 sequence (Q9NR96 26-1032): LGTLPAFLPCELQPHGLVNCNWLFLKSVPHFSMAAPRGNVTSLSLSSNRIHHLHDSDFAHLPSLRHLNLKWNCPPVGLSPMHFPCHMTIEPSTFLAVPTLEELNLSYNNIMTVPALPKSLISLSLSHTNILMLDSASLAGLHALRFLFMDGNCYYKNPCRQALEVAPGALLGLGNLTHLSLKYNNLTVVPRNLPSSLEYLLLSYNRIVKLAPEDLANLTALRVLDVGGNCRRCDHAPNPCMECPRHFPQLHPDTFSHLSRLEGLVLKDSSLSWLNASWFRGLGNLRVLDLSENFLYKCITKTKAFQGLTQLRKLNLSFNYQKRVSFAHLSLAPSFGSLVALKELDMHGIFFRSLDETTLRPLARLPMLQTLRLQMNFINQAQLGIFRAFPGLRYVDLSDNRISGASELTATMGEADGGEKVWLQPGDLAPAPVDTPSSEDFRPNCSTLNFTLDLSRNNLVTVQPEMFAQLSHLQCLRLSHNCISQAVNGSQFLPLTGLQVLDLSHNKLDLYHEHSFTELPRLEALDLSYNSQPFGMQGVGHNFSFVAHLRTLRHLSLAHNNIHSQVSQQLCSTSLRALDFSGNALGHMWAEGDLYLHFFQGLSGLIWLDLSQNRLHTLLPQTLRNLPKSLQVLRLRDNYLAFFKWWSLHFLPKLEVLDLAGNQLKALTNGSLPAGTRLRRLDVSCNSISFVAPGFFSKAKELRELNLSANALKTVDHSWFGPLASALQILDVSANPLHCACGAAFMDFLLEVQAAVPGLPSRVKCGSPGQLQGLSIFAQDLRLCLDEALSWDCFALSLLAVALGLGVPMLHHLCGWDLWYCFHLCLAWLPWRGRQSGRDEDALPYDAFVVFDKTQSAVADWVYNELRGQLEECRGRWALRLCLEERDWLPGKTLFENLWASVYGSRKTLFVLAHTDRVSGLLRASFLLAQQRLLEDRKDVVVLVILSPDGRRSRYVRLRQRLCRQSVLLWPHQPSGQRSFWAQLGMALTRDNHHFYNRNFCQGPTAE
Description: hTLR9 Antagonism (SEAP Inhibition Assay) in HEK293 Cell Lines
The SEAP reporter gene in HEK-Blue™-hTLR9 cells is placed under the control of the IFN-b minimal promoter fused to five NF-kB and AP-1 binding sites. The stimulation with a TLR9 ligand (ODN-2006) activates NF-kB and AP-1 which induces the production of SEAP. Levels of SEAP are determined with QUANTI-Blue™ detection medium that turns purple/blue in the presence of alkaline phosphatase. Decrease in the levels of SEAP production as indicated by reduction in absorbance at 650 nm is directly co-related with the TLR9 inhibitory activity of the antagonist (NCE).
HEK-Blue™-hTLR9 cells were maintained in DMEM with 10% FBS, 1% Penicillin/Streptomycin/Amphotericin (complete growth medium) and 0.2% Normocin. For the assay, cells were dissociated by washing in 1×PBS and re-suspended in complete DMEM. Cells were seeded at a density of 20000 cells per well; (40 μl per well) in a 384 well assay plate.
5 μl of 10× antagonist (NCE) was added to the cells in triplicates for each concentration. The plate was incubated for half an hour at 37° C. with 5% CO2. 5 μl of agonist (ODN-2006) was added and the plate was incubated overnight for 18 hours at 37° C. with 5% CO2. 5 μl of supernatant was transferred to a 384 well reading plate and to this 45 μl of Quanti-Blue™ detection reagent was added. The plate was then incubated for an hour at 37° C. SEAP activity in the supernatant was indicated by change in the pink color of Quanti-Blue™ detection reagent to purple/blue and the absorbance was read at 650 nm in the end point mode.

| SMILES | inhibition at 1 µM |
| --- | --- |
| CC1(O)CCN(c2ccc(-c3nccc4[nH]c(CN5CCOCC5)cc34)cc2)CC1 [Example A10, 4-methyl-1-[4-[2-(morpholinomethyl)-1H-pyrrolo[3,2-c]pyridin-4-yl]phenyl] piperidin-4-ol] | 29% |
| C1=C(c2ccc(-c3nccc4[nH]c(CN5CCOCC5)cc34)cc2)CCN(C2COC2)C1 [Example A11, 4-[[4-[4-[1-(oxetan-3-yl)-3,6-dihydro-2H-pyridin-4-yl]phenyl]-1H-pyrrolo[3,2-c]pyridin-2-yl]methyl] morpholine] | 77.5% |
| CC(C)N1CCN(c2ccc(-c3nccc4[nH]c(CN5CCC(F)(F)C5)cc34)cc2)CC1 [Example A18, 2-[(3,3-difluoropyrrolidin-1-yl)methyl]-4-[4-(4-isopropylpiperazin-1-yl)phenyl]-1H-pyrrolo[3,2-c]pyridine] | 100% |
| CC(C)N1CCN(C(=O)c2ccc(-c3nccc4[nH]c(CN5CCOCC5)cc34)cc2)CC1 [Example A19, (4-isopropylpiperazin-1-yl)-[4-[2-(morpholinomethyl)-1H-pyrrolo[3,2-c]pyridin-4-yl]phenyl] methanone] | 90% |
| CN1CCN(C(=O)c2ccc(-c3nccc4[nH]c(CN5CCOCC5)cc34)cc2)CC1 [Example A22, (4-methylpiperazin-1-yl)-[4-[2-(morpholinomethyl)-1H-pyrrolo[3,2-c]pyridin-4-yl]phenyl] methanone] | 62% |
| Cc1cc2[nH]c(CN3CCC(F)CC3)cc2c(-c2ccc(N3CCN(C(C)C)CC3)cc2)n1 [Example A27, 2-[(4-fluoro-1-piperidyl)methyl]-4-[4-(4-isopropylpiperazin-1-yl)phenyl]-6-methyl-1H-pyrrolo[3,2-c]pyridine] | 96.4% |
| CN1CCN(c2ccc(-c3nc(C(F)(F)F)cc4[nH]c(CN5CCOCC5)cc34)cc2)CC1 [Example A31, 4-[[4-[4-(4-methylpiperazin-1-yl)phenyl]-6-(trifluoromethyl)-1H-pyrrolo[3,2-c]pyridin-2-yl]methyl] morpholine] | 66% |
| CC(C)N1CCN(c2ccc(-c3nc(C(F)(F)F)cc4[nH]c(CN5CCOCC5)cc34)cc2)CC1 [Example A32, 4-[[4-[4-(4-isopropylpiperazin-1-yl)phenyl]-6-(trifluoromethyl)-1H-pyrrolo[3,2-c]pyridin-2-yl]methyl] morpholine] | 49% |
| c1cc2[nH]c(CN3CCOCC3)cc2c(-c2cnn(C3CCNCC3)c2)n1 [Example A45, 4-[[4-[1-(4-piperidyl)pyrazol-4-yl]-1H-pyrrolo [3,2-c]pyridin-2-yl]methyl] morpholine] | 76.1% |
| c1cc(-c2nccc3[nH]c(CN4CCOCC4)cc23)cc(N2CCNCC2)c1 [Example A46, 4-[[4-(3-(piperazin-1-yl)phenyl)-1H-pyrrolo[3,2-c]pyridin-2-yl]methyl] morpholine] | 83.5% |
| CC(C)N1CCN(c2ncc(-c3nccc4[nH]c(CN5CCOCC5)cc34)s2)CC1 [Example A58, 4-[[4-[2-(4-isopropylpiperazin-1-yl)thiazol-5-yl]-1H-pyrrolo[3,2-c]pyridin-2-yl]methyl]morpholine] | 98% |
| CN1CCN(c2ccc(-c3nccc4[nH]c(CN5CCOCC5)cc34)cn2)CC1 [Example A59, 4-[[4-[6-(4-methylpiperazin-1-yl)-3-pyridyl]-1H-pyrrolo[3,2-c]pyridin-2-yl]methyl]morpholine] | 94.7% |
| c1cc2[nH]c(CN3CCOCC3)cc2c(-c2ccc(C3CCN(C4COC4)CC3)cc2)n1 [Example A65, 4-[[4-[4-[1-(oxetan-3-yl)-4-piperidyl]phenyl]-1H-pyrrolo[3,2-c]pyridin-2-yl]methyl] morpholine] | 70.5% |
| COC(=O)C1CCN(c2ccc(-c3nccc4[nH]c(CN5CCOCC5)cc34)cc2)CC1 [Example A67, methyl 1-[4-[2-(morpholinomethyl)-1H-pyrrolo[3,2-c]pyridin-4-yl]phenyl]piperidine-4-carboxylate] | 27.5% |

Next, values leading:

| inhibition at 1 µM | SMILES |
| --- | --- |
| 21% | O=C(O)C1CCN(c2ccc(-c3nccc4[nH]c(CN5CCOCC5)cc34)cc2)CC1 [Example A68, 1-[4-[2-(morpholinomethyl)-1H-pyrrolo[3,2-c]pyridin-4-yl]phenyl]piperidine-4-carboxylic acid] |
| 73.5% | OC1CCN(c2ccc(-c3nccc4[nH]c(CN5CCOCC5)cc34)cc2)CC1 [Example A69, 1-[4-[2-(morpholinomethyl)-1H-pyrrolo[3,2-c]pyridin-4-yl]phenyl]piperidin-4-ol] |
| 86.1% | CC(C)N1CCN(c2ccc(-c3nccc4[nH]c(CN5CCOCC5)c(Cl)c34)cc2)CC1 [Example A71, 4-[[3-chloro-4-[4-(4-isopropylpiperazin-1-yl)phenyl]-1H-pyrrolo[3,2-c]pyridin-2-yl]methyl]morpholine] |
| 72% | COC(=O)[C@H]1CCCN1Cc1cc2c(-c3ccc(N4CCN(C(C)C)CC4)cc3)nccc2[nH]1 [Example A73, methyl (2R)-1-[[4-[4-(4-isopropyl-piperazin-1-yl)phenyl]-1H-pyrrolo[3,2-c]pyridin-2-yl]methyl]pyrrolidine-2-carboxylate] |
| 34.9% | FC(F)(F)CN1CCN(c2ccc(-c3nccc4[nH]c(CN5CCOCC5)cc34)cc2)CC1 [Example A75, 4-[[4-[4-[4-(2,2,2,2-trifluoroethyl)piperazin-1-yl]phenyl]-1H-pyrrolo[3,2-c]pyridin-2-yl]methyl]morpholine] |
| 81.2% | c1cc2[nH]c(CN3CCOCC3)cc2c(-c2ccc(N3CCN(Cc4cocn4)CC3)cc2)n1 [Example A76, 4-[[4-[4-[4-(oxazol-4-ylmethyl)piperazin-1-yl]phenyl]-1H-pyrrolo[3,2-c]pyridin-2-yl]methyl]morpholine] |
| 100% | CC(C)N1CCN(C2CCC(c3nccc4[nH]c(CN5CCOCC5)cc34)CC2)CC1 (stereo not drawn) [Example A79, 4-[[4-[4-(4-isopropylpiperazin-1-yl)cyclohexyl]-1H-pyrrolo[3,2-c]pyridin-2-yl]methyl]morpholine] |
| 29.5% | c1cc2[nH]c(CN3CCOCC3)cc2c(-c2ccc(N3CCOCC3)cc2)n1 [Example A83, 4-[4-[2-(morpholinomethyl)-1H-pyrrolo[3,2-c]pyridin-4-yl]phenyl]morpholine] |
| 95.2% | Cc1nc(-c2ccc(N3CCN(C(C)C)CC3)cc2)c2cc(CCN3CCCCC3)[nH]c2c1C [Example B9, 4-[4-(4-isopropylpiperazin-1-yl)phenyl]-6,7-dimethyl-2-[2-(1-piperidyl)ethyl]-1H-pyrrolo[3,2-c]pyridine] |
| 98.7% | Cc1cc2[nH]c(CCCN3CCOCC3)cc2c(-c2ccc(N3CCN(C)CC3)cc2)n1 [Example C4, 4-[3-[6-methyl-4-[4-(4-methylpiperazin-1-yl)phenyl]-1H-pyrrolo[3,2-c]pyridin-2-yl]propyl]morpholine] |
